According to ChEMBL document CHEMBL3991601, “The target landscape of clinical kinase drugs” (Science, 2017):
Active and inactive are the calls of the source. For most assays here, no stated cut-off is given here; in the data, actives have a measured Kd and inactives only a lower limit.

Experiments:
[1] = target: Bone morphogenetic protein receptor type-1B (Homo sapiens, UniProt O00238)
[2] = target: Citron Rho-interacting kinase (Homo sapiens, UniProt O14578)
[3] = target: Ephrin type-A receptor 7 (Homo sapiens, UniProt Q15375)
[4] = target: T1, Ephrin type-B receptor 4 (Homo sapiens, UniProt P54760)
T1 sequence (P54760 whole entry): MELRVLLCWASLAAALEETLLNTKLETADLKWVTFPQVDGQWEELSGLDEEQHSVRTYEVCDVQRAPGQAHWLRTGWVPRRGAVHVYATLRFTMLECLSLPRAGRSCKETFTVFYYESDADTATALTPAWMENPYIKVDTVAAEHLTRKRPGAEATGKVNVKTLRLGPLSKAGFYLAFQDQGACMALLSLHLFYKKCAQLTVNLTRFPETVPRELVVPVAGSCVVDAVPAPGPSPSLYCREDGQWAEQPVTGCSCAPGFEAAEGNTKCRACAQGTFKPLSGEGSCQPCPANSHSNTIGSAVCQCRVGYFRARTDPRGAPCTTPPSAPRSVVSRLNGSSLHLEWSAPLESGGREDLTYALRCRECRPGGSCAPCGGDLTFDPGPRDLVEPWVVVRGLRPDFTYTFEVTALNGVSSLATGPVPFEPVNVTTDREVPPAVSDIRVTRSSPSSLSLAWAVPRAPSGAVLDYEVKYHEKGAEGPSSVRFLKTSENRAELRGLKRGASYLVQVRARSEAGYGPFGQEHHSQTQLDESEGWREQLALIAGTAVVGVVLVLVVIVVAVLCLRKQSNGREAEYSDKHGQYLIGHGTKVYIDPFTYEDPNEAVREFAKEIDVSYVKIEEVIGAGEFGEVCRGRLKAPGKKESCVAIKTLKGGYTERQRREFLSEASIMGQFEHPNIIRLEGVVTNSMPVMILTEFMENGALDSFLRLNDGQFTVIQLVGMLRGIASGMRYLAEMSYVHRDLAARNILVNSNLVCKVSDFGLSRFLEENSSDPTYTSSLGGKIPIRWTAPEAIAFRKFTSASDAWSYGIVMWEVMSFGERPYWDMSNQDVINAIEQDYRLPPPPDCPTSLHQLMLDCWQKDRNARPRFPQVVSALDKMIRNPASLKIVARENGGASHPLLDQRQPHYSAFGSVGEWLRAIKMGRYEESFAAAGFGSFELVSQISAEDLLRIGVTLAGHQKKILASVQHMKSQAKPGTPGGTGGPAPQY

[5] = target: Dual specificity mitogen-activated protein kinase kinase 2 (Homo sapiens, UniProt P36507)
[6] = target: Mitogen-activated protein kinase 3 (Homo sapiens, UniProt P27361)
[7] = target: Mitogen-activated protein kinase 9 (Homo sapiens, UniProt P45984)
[8] = target: T2, Rab-like protein 3 (Homo sapiens, UniProt Q5HYI8)
T2 sequence (Q5HYI8 whole entry): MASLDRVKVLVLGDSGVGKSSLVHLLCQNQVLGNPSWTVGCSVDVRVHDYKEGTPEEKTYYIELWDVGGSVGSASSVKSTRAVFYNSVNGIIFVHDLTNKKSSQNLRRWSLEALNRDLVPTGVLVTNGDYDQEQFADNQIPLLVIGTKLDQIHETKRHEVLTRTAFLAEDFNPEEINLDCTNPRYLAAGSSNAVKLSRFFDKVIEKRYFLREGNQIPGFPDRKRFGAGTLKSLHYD

[9] = target: T3, STE20-related kinase adapter protein alpha (Homo sapiens, UniProt Q7RTN6)
T3 sequence (Q7RTN6 whole entry): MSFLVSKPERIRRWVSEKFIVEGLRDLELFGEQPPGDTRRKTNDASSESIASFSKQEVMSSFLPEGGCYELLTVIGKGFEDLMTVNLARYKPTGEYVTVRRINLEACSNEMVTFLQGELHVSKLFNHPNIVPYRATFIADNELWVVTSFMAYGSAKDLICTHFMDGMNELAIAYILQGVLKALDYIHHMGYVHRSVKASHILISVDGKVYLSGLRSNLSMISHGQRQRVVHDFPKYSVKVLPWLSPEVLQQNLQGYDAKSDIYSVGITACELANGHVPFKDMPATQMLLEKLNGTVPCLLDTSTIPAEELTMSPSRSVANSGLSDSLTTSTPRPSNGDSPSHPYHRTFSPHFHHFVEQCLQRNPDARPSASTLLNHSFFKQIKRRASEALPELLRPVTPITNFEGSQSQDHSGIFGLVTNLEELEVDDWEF

[10] = target: T4, TGF-beta receptor type-1 (Homo sapiens, UniProt P36897)
T4 sequence (P36897 whole entry): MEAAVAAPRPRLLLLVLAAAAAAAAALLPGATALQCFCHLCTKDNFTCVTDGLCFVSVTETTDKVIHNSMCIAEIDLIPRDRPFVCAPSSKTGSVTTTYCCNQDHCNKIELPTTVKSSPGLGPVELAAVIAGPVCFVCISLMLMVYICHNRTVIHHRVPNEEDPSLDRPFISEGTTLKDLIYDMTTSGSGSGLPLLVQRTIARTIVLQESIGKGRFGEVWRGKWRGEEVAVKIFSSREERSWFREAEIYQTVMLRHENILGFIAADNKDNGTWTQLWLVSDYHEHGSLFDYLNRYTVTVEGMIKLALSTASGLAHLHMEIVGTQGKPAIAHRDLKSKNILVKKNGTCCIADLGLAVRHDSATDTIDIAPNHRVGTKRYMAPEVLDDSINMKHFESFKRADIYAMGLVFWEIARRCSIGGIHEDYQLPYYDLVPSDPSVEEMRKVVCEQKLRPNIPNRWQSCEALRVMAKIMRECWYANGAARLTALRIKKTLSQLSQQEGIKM

[11] = target: Wee1-like protein kinase (Homo sapiens, UniProt P30291)
[12] = target: Tyrosine-protein kinase Yes (Homo sapiens, UniProt P07947)
Tyrosine-protein kinase Yes, sequence (P07947 whole entry): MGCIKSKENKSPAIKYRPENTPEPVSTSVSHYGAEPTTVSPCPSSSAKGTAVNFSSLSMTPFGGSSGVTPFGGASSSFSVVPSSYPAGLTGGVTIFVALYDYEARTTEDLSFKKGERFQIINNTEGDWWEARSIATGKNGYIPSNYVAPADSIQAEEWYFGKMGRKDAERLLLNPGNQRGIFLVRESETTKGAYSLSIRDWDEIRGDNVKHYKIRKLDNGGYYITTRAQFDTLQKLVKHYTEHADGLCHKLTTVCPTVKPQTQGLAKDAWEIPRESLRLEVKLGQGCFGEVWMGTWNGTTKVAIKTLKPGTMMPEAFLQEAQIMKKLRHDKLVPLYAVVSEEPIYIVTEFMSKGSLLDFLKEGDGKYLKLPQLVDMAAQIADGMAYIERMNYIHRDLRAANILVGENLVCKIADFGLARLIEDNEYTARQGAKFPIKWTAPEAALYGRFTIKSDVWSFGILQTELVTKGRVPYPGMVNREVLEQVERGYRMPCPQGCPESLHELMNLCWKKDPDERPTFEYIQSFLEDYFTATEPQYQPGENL

Bone morphogenetic protein receptor type-1B, sequence (O00238 whole entry): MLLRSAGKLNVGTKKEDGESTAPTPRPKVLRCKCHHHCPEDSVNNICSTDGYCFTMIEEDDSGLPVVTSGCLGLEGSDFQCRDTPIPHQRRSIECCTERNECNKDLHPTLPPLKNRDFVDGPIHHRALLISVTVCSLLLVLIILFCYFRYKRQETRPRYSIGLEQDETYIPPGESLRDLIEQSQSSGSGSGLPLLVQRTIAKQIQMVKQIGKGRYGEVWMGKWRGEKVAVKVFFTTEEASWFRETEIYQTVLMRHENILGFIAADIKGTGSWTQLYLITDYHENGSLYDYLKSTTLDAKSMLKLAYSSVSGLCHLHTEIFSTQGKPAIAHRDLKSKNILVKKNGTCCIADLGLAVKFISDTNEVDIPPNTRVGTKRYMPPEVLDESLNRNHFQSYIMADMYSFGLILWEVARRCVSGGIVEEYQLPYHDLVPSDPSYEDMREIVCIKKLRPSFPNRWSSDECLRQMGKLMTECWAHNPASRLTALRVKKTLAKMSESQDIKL
Ephrin type-A receptor 7, sequence (Q15375 whole entry): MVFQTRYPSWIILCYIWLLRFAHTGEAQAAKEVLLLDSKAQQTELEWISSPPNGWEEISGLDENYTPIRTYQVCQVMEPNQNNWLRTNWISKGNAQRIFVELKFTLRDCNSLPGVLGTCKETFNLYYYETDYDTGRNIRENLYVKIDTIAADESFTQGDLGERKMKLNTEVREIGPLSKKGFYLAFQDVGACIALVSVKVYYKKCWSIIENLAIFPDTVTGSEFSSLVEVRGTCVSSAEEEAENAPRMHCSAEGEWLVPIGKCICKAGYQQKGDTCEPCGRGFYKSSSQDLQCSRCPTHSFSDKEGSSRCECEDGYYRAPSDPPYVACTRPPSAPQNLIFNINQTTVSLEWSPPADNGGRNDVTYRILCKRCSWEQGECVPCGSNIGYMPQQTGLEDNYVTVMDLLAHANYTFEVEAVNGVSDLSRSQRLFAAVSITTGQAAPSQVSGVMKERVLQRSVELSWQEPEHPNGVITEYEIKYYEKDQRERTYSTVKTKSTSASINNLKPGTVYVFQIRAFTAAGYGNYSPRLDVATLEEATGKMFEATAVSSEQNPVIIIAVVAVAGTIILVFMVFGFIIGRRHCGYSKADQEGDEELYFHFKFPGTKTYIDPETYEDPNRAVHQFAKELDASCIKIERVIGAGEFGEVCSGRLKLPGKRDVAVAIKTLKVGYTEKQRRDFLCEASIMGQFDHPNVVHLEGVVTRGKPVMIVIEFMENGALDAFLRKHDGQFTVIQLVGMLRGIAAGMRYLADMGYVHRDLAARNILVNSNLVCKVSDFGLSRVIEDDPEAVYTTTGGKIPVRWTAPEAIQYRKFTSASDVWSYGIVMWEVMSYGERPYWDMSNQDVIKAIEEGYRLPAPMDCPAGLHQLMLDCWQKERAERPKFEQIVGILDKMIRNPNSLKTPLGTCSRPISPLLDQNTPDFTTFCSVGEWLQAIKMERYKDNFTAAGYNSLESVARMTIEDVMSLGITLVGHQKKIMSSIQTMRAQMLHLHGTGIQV
Citron Rho-interacting kinase, sequence (O14578 whole entry): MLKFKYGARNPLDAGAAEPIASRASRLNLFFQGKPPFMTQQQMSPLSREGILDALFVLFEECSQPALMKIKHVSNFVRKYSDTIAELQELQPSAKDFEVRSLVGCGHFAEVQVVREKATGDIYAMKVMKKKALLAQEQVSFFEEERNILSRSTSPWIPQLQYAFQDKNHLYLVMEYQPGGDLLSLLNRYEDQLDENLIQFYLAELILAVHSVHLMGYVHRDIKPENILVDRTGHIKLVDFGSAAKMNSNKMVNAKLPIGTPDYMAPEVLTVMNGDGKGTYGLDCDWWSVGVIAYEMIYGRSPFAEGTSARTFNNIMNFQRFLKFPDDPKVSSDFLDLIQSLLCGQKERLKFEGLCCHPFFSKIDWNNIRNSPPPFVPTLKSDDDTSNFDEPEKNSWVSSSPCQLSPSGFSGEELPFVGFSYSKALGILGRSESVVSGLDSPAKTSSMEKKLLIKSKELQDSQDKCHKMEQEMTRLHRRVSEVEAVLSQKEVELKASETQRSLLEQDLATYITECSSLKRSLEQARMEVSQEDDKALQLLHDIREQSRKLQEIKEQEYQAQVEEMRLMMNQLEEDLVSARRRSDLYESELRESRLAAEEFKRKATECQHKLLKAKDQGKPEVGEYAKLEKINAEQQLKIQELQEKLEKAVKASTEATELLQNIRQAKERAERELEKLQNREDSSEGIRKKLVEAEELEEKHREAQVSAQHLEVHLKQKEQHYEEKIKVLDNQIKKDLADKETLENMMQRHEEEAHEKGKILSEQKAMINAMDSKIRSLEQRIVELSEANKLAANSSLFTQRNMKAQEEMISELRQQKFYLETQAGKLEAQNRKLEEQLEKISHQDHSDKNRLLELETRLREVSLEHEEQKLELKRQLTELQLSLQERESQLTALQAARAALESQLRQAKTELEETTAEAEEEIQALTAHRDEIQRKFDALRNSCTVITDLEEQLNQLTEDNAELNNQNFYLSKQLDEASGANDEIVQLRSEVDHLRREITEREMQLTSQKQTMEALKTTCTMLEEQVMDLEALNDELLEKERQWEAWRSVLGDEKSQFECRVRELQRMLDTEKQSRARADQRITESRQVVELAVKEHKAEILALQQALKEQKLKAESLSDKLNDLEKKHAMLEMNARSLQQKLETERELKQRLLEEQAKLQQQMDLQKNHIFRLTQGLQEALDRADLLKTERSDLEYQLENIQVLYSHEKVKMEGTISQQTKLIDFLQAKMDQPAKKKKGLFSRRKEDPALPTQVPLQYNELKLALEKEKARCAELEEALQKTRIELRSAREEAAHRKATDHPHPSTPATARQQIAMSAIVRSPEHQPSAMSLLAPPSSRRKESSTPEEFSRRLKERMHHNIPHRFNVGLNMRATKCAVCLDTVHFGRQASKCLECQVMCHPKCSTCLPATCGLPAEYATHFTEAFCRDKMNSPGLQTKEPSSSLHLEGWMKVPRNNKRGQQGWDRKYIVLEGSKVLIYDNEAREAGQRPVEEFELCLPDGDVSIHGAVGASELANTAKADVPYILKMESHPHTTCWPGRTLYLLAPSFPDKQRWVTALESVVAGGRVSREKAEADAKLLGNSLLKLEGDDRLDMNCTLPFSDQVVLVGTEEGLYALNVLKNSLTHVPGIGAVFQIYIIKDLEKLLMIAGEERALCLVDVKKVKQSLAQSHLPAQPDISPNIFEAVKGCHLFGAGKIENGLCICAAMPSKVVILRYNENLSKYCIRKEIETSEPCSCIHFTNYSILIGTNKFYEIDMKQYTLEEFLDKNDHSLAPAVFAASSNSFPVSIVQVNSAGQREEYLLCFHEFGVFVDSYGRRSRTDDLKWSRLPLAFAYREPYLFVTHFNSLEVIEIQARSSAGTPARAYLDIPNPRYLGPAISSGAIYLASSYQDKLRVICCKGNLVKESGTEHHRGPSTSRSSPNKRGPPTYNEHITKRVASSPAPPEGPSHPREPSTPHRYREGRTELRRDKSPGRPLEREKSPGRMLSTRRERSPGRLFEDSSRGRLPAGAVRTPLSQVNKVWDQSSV
Wee1-like protein kinase, sequence (P30291 whole entry): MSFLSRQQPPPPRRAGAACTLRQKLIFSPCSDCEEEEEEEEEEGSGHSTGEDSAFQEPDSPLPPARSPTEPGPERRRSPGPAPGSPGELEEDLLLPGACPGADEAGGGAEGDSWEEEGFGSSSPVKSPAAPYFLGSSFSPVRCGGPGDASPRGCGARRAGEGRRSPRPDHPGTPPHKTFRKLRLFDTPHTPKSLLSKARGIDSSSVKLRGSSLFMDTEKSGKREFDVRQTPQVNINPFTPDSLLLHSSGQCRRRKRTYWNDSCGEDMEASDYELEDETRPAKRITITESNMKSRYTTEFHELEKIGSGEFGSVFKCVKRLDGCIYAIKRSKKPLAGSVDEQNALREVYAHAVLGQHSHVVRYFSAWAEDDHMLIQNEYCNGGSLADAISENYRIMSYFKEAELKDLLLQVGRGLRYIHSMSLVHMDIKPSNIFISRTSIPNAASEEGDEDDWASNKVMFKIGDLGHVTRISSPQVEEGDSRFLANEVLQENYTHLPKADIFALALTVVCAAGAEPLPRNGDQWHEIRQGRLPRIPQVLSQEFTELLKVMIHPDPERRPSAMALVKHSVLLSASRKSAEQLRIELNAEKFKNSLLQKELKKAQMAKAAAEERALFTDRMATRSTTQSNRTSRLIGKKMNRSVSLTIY
Mitogen-activated protein kinase 3, sequence (P27361 whole entry): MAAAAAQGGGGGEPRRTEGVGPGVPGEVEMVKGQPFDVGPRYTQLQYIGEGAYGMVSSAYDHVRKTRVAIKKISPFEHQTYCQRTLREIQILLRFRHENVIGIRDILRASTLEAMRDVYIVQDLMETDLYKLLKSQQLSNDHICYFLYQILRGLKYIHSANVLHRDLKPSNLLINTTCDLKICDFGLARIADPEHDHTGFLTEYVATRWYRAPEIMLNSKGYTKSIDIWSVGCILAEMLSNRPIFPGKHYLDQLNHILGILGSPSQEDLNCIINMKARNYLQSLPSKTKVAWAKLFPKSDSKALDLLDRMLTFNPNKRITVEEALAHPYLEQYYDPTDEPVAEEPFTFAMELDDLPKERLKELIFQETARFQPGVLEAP

SMILES	Kd [1]	Kd [2]	Kd [3]	Kd [4]	Kd [5]	Kd [6]	Kd [7]	Kd [8]	Kd [9]	Kd [10]	Kd [11]	Kd [12]
Cn1c(=O)c(F)c(Nc2ccc(I)cc2F)c2c(=O)n(C[C@@H](O)CO)cnc21 [TAK-733]	> 30 µM (inactive)	> 30 µM (inactive)	> 30 µM (inactive)	> 30 µM (inactive)	0.02 µM (active)	> 30 µM (inactive)	> 30 µM (inactive)	> 30 µM (inactive)	> 30 µM (inactive)	> 30 µM (inactive)	> 30 µM (inactive)	> 30 µM (inactive)
Cc1cc(C(=O)Nc2cc(Oc3ccc4nc(NC(=O)C5CC5)cn4n3)ccc2C)n(C)n1 [TAK-593]	> 30 µM (inactive)	> 30 µM (inactive)	> 30 µM (inactive)	> 30 µM (inactive)	> 30 µM (inactive)	> 30 µM (inactive)	> 30 µM (inactive)	> 30 µM (inactive)	> 30 µM (inactive)	> 30 µM (inactive)	> 30 µM (inactive)	
CCOc1ccn(-c2ccc(F)cc2)c(=O)c1C(=O)Nc1ccc(Oc2ccnc(N)c2Cl)c(F)c1 [BMS-777607]	> 30 µM (inactive)	> 30 µM (inactive)	> 30 µM (inactive)	> 30 µM (inactive)	> 30 µM (inactive)	> 30 µM (inactive)	> 30 µM (inactive)	> 30 µM (inactive)		> 30 µM (inactive)	> 30 µM (inactive)	> 30 µM (inactive)
CNC(=O)c1ccc(Nc2ncc(C(F)(F)F)c(NCc3nccnc3N(C)S(C)(=O)=O)n2)cc1 [DEFACTINIB]	> 30 µM (inactive)	> 30 µM (inactive)	> 30 µM (inactive)	> 30 µM (inactive)	> 30 µM (inactive)	> 30 µM (inactive)	> 30 µM (inactive)	> 30 µM (inactive)	> 30 µM (inactive)	> 30 µM (inactive)		> 30 µM (inactive)
C=CC(=O)Nc1cc(Nc2nccc(-c3cn(C)c4ccccc34)n2)c(OC)cc1N(C)CCN(C)C [OSIMERTINIB]	> 30 µM (inactive)	> 30 µM (inactive)	> 30 µM (inactive)	> 30 µM (inactive)	> 30 µM (inactive)	> 30 µM (inactive)	> 30 µM (inactive)		> 30 µM (inactive)	> 30 µM (inactive)	> 30 µM (inactive)	> 30 µM (inactive)
CCc1nc(C(N)=O)c(Nc2ccc(N3CCC(N4CCN(C)CC4)CC3)c(OC)c2)nc1NC1CCOCC1 [GILTERITINIB]		2.35 µM (active)	2.98 µM (active)	> 30 µM (inactive)	0.502 µM (active)	> 30 µM (inactive)	0.43 µM (active)	4.83 µM	> 30 µM (inactive)	> 30 µM (inactive)	> 30 µM (inactive)	
CCN1CCN(Cc2ccc(Nc3ncc(F)c(-c4cc(F)c5nc(C)n(C(C)C)c5c4)n3)nc2)CC1 [ABEMACICLIB]	> 30 µM (inactive)	0.798 µM (active)		> 30 µM (inactive)	> 30 µM (inactive)	> 30 µM (inactive)	> 30 µM (inactive)	> 30 µM (inactive)	> 30 µM (inactive)	> 30 µM (inactive)	> 30 µM (inactive)	> 30 µM (inactive)
